Data from patent US7214366B2, “Isolatable, water soluble, and hydrolytically stable active sulfones of poly(ethylene glycol) and related polymers for modification of surfaces and molecules” (Nektar Therapeutics AL, Corporation, priority 1993, dated 2007).

Details: pH 7

poly(ethylene glycol) chloroethyl sulfone [PEG chloroethyl sulfone]
stability in water, NMR after extraction: stable
